Test results reported in the kinase profiling compilation of Christmann-Franck et al. (2016).

Assays:
Experiment in all cases: KINOMEscan competition binding
Settings in all cases: compound 10.0 µM
ABL2 (human) = ABL2 (human) (UniProt P42684)
AXL (human) = AXL (human) (UniProt P30530)
CAMK1G (human) = CAMK1G (human) (UniProt Q96NX5)
CAMK2D (human) = CAMK2D (human) (UniProt Q13557)
CAMK4 (human) = CAMK4 (human) (UniProt Q16566)
CAMKK1 (human) = CAMKK1 (human) (UniProt Q8N5S9)
CDK16 (human) = CDK16 (human) (UniProt Q00536)
CDK2 (human) = CDK2 (human) (UniProt P24941)
CRK2 (P.falciparum) = CRK2 (P.falciparum) (UniProt P61075)
DAPK3 (human) = DAPK3 (human) (UniProt O43293)
Chain of DAPK3 (human) (O43293 whole entry, looked up): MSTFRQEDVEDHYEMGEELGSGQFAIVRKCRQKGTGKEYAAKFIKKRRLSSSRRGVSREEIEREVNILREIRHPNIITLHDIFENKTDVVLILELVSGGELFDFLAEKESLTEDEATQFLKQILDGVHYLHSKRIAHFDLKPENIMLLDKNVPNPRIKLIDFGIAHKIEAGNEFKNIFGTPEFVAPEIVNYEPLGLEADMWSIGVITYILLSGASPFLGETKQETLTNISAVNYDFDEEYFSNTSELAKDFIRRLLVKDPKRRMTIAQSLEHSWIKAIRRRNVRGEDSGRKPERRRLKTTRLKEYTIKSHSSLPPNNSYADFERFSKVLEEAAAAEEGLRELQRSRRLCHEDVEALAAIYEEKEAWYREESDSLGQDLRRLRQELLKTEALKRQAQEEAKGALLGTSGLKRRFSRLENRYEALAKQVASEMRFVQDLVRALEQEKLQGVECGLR

EPHA2 (human) = EPHA2 (human) (UniProt P29317)
EPHA4 (human) = EPHA4 (human) (UniProt P54764)
ERN1 (human) = ERN1 (human) (UniProt O75460)
FGFR4 (human) = FGFR4 (human) (UniProt P22455)
Chain of FGFR4 (human) (P22455 whole entry, looked up): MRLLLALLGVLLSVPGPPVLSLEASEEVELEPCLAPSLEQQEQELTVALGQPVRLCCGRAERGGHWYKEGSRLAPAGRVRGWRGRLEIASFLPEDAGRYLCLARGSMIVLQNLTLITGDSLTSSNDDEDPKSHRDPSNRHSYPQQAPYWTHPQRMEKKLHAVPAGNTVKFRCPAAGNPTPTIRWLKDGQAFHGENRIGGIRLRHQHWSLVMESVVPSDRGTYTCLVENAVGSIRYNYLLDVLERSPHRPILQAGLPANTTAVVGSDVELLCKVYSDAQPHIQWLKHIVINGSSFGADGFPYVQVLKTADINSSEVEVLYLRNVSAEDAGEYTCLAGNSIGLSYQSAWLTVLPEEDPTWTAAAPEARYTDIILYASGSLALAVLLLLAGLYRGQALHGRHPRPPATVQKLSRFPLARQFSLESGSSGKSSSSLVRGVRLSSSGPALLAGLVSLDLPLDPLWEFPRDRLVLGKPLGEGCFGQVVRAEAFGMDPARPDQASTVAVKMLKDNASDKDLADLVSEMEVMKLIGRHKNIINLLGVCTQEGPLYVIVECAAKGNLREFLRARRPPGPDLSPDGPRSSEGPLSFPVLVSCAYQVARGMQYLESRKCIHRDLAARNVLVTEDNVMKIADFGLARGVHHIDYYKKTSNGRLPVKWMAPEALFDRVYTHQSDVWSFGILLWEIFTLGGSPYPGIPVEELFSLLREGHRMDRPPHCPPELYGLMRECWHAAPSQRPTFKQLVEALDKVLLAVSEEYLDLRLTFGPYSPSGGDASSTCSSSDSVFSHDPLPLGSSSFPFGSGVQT

HIPK2 (human) = HIPK2 (human) (UniProt Q9H2X6)
IRAK1 (human) = IRAK1 (human) (UniProt P51617)
MAP3K1 (human) = MAP3K1 (human) (UniProt Q13233)
MAP3K15 (human) = MAP3K15 (human) (UniProt Q6ZN16)
MAP3K9 (human) = MAP3K9 (human) (UniProt P80192)
MAPK8 (human) = MAPK8 (human) (UniProt P45983)
MARK3 (human) = MARK3 (human) (UniProt P27448)
MYLK4 (human) = MYLK4 (human) (UniProt Q86YV6)
Chain of MYLK4 (human) (Q86YV6 whole entry, looked up): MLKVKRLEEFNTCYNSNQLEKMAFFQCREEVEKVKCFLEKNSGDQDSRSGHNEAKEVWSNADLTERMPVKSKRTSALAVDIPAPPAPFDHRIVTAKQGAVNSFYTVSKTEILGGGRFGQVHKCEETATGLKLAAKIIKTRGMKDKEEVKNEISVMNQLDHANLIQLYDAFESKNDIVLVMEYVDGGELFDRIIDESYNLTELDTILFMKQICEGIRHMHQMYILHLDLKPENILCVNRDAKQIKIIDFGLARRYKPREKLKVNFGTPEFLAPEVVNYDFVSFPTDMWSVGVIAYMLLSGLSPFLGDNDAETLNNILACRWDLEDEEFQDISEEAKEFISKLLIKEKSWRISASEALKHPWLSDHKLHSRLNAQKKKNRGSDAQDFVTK

MYO3B (human) = MYO3B (human) (UniProt Q8WXR4)
NLK (human) = NLK (human) (UniProt Q9UBE8)
PAK1 (human) = PAK1 (human) (UniProt Q13153)
PIK3C2G (human) = PIK3C2G (human) (UniProt O75747)
PIP4K2C (human) = PIP4K2C (human) (UniProt Q8TBX8)
PRKAA2 (human) = PRKAA2 (human) (UniProt P54646)
PRKACA (human) = PRKACA (human) (UniProt P17612)
PRKACB (human) = PRKACB (human) (UniProt P22694)
PTK2B (human) = PTK2B (human) (UniProt Q14289)
RIOK2 (human) = RIOK2 (human) (UniProt Q9BVS4)
RIOK3 (human) = RIOK3 (human) (UniProt O14730)
RPS6KA6 KD2 (human) = RPS6KA6 KD2 (human) (UniProt Q9UK32)
SBK1 (human) = SBK1 (human) (UniProt Q52WX2)
SIK1 (human) = SIK1 (human) (UniProt P57059)
SRMS (human) = SRMS (human) (UniProt Q9H3Y6)
TAOK1 (human) = TAOK1 (human) (UniProt Q7L7X3)
TLK2 (human) = TLK2 (human) (UniProt Q86UE8)
TNIK (human) = TNIK (human) (UniProt Q9UKE5)
Chain of TNIK (human) (Q9UKE5 whole entry, looked up): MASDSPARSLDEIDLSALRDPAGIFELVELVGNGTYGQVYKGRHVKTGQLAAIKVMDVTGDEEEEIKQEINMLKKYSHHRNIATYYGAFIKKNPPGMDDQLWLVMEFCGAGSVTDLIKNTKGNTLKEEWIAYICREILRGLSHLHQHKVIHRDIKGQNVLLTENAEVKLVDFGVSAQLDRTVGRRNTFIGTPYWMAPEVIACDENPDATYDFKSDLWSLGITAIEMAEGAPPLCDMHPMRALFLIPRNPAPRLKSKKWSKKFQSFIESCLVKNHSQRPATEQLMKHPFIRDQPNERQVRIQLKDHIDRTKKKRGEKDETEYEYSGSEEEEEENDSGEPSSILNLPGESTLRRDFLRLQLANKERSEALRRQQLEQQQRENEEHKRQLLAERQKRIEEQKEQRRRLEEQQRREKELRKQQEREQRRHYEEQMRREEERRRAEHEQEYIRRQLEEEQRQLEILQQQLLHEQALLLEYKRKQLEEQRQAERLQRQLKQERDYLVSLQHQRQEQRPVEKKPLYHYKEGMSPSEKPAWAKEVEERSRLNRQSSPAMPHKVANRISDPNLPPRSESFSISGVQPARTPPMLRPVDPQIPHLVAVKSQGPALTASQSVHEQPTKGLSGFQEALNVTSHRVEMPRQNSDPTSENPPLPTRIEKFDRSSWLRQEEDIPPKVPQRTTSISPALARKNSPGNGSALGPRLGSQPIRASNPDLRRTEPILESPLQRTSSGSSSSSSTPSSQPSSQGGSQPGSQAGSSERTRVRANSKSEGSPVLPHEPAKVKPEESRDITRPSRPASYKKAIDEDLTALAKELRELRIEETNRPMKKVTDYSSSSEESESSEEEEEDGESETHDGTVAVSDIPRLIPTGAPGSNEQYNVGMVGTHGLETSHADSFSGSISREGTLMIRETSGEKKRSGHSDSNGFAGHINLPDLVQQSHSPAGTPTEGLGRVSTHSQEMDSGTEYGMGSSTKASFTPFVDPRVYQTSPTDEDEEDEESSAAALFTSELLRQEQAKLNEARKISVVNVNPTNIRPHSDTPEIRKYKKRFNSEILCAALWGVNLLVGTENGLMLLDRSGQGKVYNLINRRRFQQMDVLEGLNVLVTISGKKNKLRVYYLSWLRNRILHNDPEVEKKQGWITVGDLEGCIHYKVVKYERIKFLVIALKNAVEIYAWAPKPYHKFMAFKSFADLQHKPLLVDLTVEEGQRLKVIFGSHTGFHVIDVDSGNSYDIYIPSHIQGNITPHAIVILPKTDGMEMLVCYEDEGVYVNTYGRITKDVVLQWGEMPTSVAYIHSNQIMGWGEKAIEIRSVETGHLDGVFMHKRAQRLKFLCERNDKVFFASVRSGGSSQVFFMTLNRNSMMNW

Chain of AXL (human) (P30530 whole entry, looked up): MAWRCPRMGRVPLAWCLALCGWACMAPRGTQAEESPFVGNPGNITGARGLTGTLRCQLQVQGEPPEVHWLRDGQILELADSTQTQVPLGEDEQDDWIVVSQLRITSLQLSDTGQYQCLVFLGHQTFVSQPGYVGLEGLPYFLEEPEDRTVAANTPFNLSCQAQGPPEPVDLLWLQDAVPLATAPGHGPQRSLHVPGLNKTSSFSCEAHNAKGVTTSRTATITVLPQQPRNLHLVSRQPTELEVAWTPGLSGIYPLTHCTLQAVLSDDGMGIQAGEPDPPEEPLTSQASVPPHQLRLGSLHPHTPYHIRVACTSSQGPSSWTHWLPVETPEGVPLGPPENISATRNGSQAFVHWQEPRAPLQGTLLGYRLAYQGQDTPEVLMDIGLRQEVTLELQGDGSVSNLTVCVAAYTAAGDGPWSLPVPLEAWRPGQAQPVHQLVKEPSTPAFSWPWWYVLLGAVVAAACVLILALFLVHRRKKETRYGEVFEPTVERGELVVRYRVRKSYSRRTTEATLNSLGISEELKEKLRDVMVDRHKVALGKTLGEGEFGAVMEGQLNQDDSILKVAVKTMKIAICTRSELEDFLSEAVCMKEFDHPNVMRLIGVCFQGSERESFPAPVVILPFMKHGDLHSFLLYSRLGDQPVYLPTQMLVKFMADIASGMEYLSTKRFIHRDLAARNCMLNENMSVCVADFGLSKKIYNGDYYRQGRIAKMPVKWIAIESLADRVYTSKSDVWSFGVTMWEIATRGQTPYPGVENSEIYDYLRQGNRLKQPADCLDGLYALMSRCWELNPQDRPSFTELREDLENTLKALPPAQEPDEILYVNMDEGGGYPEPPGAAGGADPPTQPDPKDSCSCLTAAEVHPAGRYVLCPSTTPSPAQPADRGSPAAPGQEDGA
Chain of ABL2 (human) (P42684 whole entry, looked up): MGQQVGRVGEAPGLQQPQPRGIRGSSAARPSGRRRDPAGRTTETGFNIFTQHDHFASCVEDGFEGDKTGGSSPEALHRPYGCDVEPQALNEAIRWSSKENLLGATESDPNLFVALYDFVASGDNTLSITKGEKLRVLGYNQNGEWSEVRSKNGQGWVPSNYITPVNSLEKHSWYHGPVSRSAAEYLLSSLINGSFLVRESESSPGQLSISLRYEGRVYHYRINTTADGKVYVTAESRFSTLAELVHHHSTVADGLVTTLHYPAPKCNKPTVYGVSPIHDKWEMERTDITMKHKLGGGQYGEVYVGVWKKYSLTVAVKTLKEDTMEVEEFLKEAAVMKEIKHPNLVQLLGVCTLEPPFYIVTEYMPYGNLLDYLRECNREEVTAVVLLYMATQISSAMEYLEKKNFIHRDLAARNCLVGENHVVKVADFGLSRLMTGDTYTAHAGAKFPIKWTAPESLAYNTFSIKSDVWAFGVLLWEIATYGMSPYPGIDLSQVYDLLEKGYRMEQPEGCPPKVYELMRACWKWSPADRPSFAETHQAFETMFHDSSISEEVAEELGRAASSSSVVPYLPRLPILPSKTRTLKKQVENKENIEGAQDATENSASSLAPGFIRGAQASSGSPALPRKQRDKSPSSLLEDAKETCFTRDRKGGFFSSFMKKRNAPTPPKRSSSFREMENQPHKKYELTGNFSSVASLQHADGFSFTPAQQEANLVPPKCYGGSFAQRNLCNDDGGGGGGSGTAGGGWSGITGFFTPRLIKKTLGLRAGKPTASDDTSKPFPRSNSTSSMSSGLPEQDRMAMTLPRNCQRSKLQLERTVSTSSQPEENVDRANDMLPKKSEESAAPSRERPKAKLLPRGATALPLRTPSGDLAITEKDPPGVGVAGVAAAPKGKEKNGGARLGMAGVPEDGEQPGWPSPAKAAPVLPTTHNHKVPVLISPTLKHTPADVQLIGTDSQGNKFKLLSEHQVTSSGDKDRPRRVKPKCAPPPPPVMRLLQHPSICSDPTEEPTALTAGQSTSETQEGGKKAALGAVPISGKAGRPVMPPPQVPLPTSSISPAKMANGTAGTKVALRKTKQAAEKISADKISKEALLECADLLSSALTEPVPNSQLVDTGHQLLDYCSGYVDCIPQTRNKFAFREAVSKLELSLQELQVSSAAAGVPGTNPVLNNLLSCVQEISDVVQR

N#CCNC(=O)c1ccc(-c2ccnc(Nc3ccc(N4CCOCC4)cc3)n2)cc1
kinase still bound, per cent of control (ABL2 (human)): 57%
kinase still bound, per cent of control (AXL (human)): 57%
kinase still bound, per cent of control (CAMK1G (human)): 30%
kinase still bound, per cent of control (CAMK2D (human)): 34%
kinase still bound, per cent of control (CAMK4 (human)): 100%
kinase still bound, per cent of control (CAMKK1 (human)): 27%
kinase still bound, per cent of control (CDK16 (human)): 21%
kinase still bound, per cent of control (CDK2 (human)): 55%
kinase still bound, per cent of control (CRK2 (P.falciparum)): 100%
kinase still bound, per cent of control (DAPK3 (human)): 11%
kinase still bound, per cent of control (EPHA2 (human)): 100%
kinase still bound, per cent of control (EPHA4 (human)): 100%
kinase still bound, per cent of control (ERN1 (human)): 100%
kinase still bound, per cent of control (FGFR4 (human)): 91%
kinase still bound, per cent of control (HIPK2 (human)): 15%
kinase still bound, per cent of control (IRAK1 (human)): 1.3%
kinase still bound, per cent of control (MAP3K1 (human)): 92%
kinase still bound, per cent of control (MAP3K15 (human)): 68%
kinase still bound, per cent of control (MAP3K9 (human)): 45%
kinase still bound, per cent of control (MAPK8 (human)): 1%
kinase still bound, per cent of control (MARK3 (human)): 16%
kinase still bound, per cent of control (MYLK4 (human)): 0%
kinase still bound, per cent of control (MYO3B (human)): 100%
kinase still bound, per cent of control (NLK (human)): 86%
kinase still bound, per cent of control (PAK1 (human)): 100%
kinase still bound, per cent of control (PIK3C2G (human)): 100%
kinase still bound, per cent of control (PIP4K2C (human)): 54%
kinase still bound, per cent of control (PRKAA2 (human)): 74%
kinase still bound, per cent of control (PRKACA (human)): 96%
kinase still bound, per cent of control (PRKACB (human)): 36%
kinase still bound, per cent of control (PTK2B (human)): 86%
kinase still bound, per cent of control (RIOK2 (human)): 68%
kinase still bound, per cent of control (RIOK3 (human)): 0%
kinase still bound, per cent of control (RPS6KA6 KD2 (human)): 52%
kinase still bound, per cent of control (SBK1 (human)): 46%
kinase still bound, per cent of control (SIK1 (human)): 62%
kinase still bound, per cent of control (SRMS (human)): 100%
kinase still bound, per cent of control (TAOK1 (human)): 32%
kinase still bound, per cent of control (TLK2 (human)): 88%
kinase still bound, per cent of control (TNIK (human)): 59%

NC(=O)Nc1cc(-c2cccc(F)c2)sc1C(=O)N[C@@H]1CCCNC1
kinase still bound, per cent of control (ABL2 (human)): 0.2%
kinase still bound, per cent of control (AXL (human)): 0%
kinase still bound, per cent of control (CAMK1G (human)): 6.2%
kinase still bound, per cent of control (CAMK2D (human)): 6.7%
kinase still bound, per cent of control (CAMK4 (human)): 0.15%
kinase still bound, per cent of control (CAMKK1 (human)): 7%
kinase still bound, per cent of control (CDK16 (human)): 79%
kinase still bound, per cent of control (CDK2 (human)): 93%
kinase still bound, per cent of control (CRK2 (P.falciparum)): 100%
kinase still bound, per cent of control (DAPK3 (human)): 2.9%
kinase still bound, per cent of control (EPHA2 (human)): 7.4%
kinase still bound, per cent of control (EPHA4 (human)): 3.4%
kinase still bound, per cent of control (ERN1 (human)): 25%
kinase still bound, per cent of control (FGFR4 (human)): 13%
kinase still bound, per cent of control (HIPK2 (human)): 13%
kinase still bound, per cent of control (IRAK1 (human)): 0%
kinase still bound, per cent of control (MAP3K1 (human)): 51%
kinase still bound, per cent of control (MAP3K15 (human)): 28%
kinase still bound, per cent of control (MAP3K9 (human)): 0.15%
kinase still bound, per cent of control (MAPK8 (human)): 29%
kinase still bound, per cent of control (MARK3 (human)): 0.85%
kinase still bound, per cent of control (MYLK4 (human)): 51%
kinase still bound, per cent of control (MYO3B (human)): 8.2%
kinase still bound, per cent of control (NLK (human)): 81%
kinase still bound, per cent of control (PAK1 (human)): 1.2%
kinase still bound, per cent of control (PIK3C2G (human)): 64%
kinase still bound, per cent of control (PIP4K2C (human)): 87%
kinase still bound, per cent of control (PRKAA2 (human)): 0.35%
kinase still bound, per cent of control (PRKACA (human)): 1.4%
kinase still bound, per cent of control (PRKACB (human)): 1.8%
kinase still bound, per cent of control (PTK2B (human)): 0.6%
kinase still bound, per cent of control (RIOK2 (human)): 48%
kinase still bound, per cent of control (RIOK3 (human)): 0.4%
kinase still bound, per cent of control (RPS6KA6 KD2 (human)): 1.2%
kinase still bound, per cent of control (SBK1 (human)): 0%
kinase still bound, per cent of control (SIK1 (human)): 0.3%
kinase still bound, per cent of control (SRMS (human)): 0%
kinase still bound, per cent of control (TAOK1 (human)): 4.8%
kinase still bound, per cent of control (TLK2 (human)): 1.9%
kinase still bound, per cent of control (TNIK (human)): 0.1%

O=C(Nc1cccc(Nc2ncc(Br)c(NCCc3cnc[nH]3)n2)c1)N1CCCC1
kinase still bound, per cent of control (ABL2 (human)): 7.8%
kinase still bound, per cent of control (AXL (human)): 1.2%
kinase still bound, per cent of control (CAMK1G (human)): 28%
kinase still bound, per cent of control (CAMK2D (human)): 46%
kinase still bound, per cent of control (CAMK4 (human)): 100%
kinase still bound, per cent of control (CAMKK1 (human)): 8.8%
kinase still bound, per cent of control (CDK16 (human)): 40%
kinase still bound, per cent of control (CDK2 (human)): 43%
kinase still bound, per cent of control (CRK2 (P.falciparum)): 100%
kinase still bound, per cent of control (DAPK3 (human)): 4%
kinase still bound, per cent of control (EPHA2 (human)): 60%
kinase still bound, per cent of control (EPHA4 (human)): 100%
kinase still bound, per cent of control (ERN1 (human)): 34%
kinase still bound, per cent of control (FGFR4 (human)): 1.8%
kinase still bound, per cent of control (HIPK2 (human)): 1.6%
kinase still bound, per cent of control (IRAK1 (human)): 0.25%
kinase still bound, per cent of control (MAP3K1 (human)): 34%
kinase still bound, per cent of control (MAP3K15 (human)): 50%
kinase still bound, per cent of control (MAP3K9 (human)): 0.45%
kinase still bound, per cent of control (MAPK8 (human)): 0.2%
kinase still bound, per cent of control (MARK3 (human)): 0.3%
kinase still bound, per cent of control (MYLK4 (human)): 6.8%
kinase still bound, per cent of control (MYO3B (human)): 93%
kinase still bound, per cent of control (NLK (human)): 100%
kinase still bound, per cent of control (PAK1 (human)): 36%
kinase still bound, per cent of control (PIK3C2G (human)): 25%
kinase still bound, per cent of control (PIP4K2C (human)): 2%
kinase still bound, per cent of control (PRKAA2 (human)): 0.5%
kinase still bound, per cent of control (PRKACA (human)): 0.95%
kinase still bound, per cent of control (PRKACB (human)): 1%
kinase still bound, per cent of control (PTK2B (human)): 8.2%
kinase still bound, per cent of control (RIOK2 (human)): 36%
kinase still bound, per cent of control (RIOK3 (human)): 0.5%
kinase still bound, per cent of control (RPS6KA6 KD2 (human)): 10%
kinase still bound, per cent of control (SBK1 (human)): 3.6%
kinase still bound, per cent of control (SIK1 (human)): 0.35%
kinase still bound, per cent of control (SRMS (human)): 37%
kinase still bound, per cent of control (TAOK1 (human)): 0.25%
kinase still bound, per cent of control (TLK2 (human)): 56%
kinase still bound, per cent of control (TNIK (human)): 0.8%
